# Key:
# [1] = CC50 assay in the anti-HCV replicon assay (CellTiter-Glo); assay type: cell-based, human; conditions: human, Huh-7 hepatoma cells harbouring an HCV replicon; Huh-7 HCV replicon cells, 3 days incubation, CellTiter-Glo luminescence
# Method: (§1) The anti HCV activity of the quinazoline derivatives of this invention was tested in a human hepatoma Huh-7 cell line harbouring a HCV replicon. The assay comprised the following steps:
# (§2) Step 1: compound preparation and serial dilution • 1. for water soluble quinazoline derivatives, a volume of 500 μL of solution in cell media (DMEM, 10% FBS, P/S, L-Glutamine) was prepared with a concentration being twice the concentration of the starting final serial dilution concentration. A volume of 150 μL of the solution was added to the pre-specified wells in column 1 of a 96-well cell culture plate (PerkinElmer, white plate, cat. #6005181, for EC50 assay; black plate, cat. #6005182 for CC50 assay). The rest of the plate, columns 2-12, was filled with 100 μL of cell media. The plate was then placed on a Precision 2000 Workstation to start the serial dilution. Compounds were diluted three times each step from column 1 to column 10. Column 11 was used as a blank control (no compound added). • 2. for quinazoline derivatives requiring DMSO to dissolve, serial dilution is performed in 50% DMSO in a 384-well plate. A solution containing a compound at 100-fold concentration of the starting final serial dilution concentration was prepared in 50% DMSO and added to the pre-specified wells in column 1 of a polypropylene 384-well plate. The plate was then placed on a Precision 2000 Workstation to start the serial dilution. After the serial dilution, a volume of 2 μL of the solution was transferred from the 384-well plate to a 96-well cell culture plate containing 100 μL of cell media on a Biomek FX Workstation. The DMSO concentration in the final assay condition was 0.5% after cells are added to the plate and the total volume in each well is brought to 200 μL.
# (§3) Step 2: to each well of the serial dilution plate prepared above, 100 μL of cell media containing 6000 suspended Huh-7 HCV replicon cells was added with a Multidrop workstation. The plates were incubated for 3 days at 37° C. with 5% CO2.
# (§4) Step 3: detection: • a) for the EC50 assay, the media in a 96-well cell culture plate was aspirated with a Biotek EL405 plate-washer. A volume of 200 μL of a solution containing a 1:1 mixture of cell-lysis buffer (Promega, Luciferase Cell Culture Lysis 5× Reagent, cat. #E1531) and luciferase substrate solution (Promega, Luciferase Assay, cat.# E4550) was added to each well of the plate with Multidrop. The plate was incubated for 30 minutes at room temperature before the luminescence signal was measured with a TopCount plate-reader. • b) for the CC50 assay, a volume of 100 μL of pre-mixed CellTiter-Glo (Promega, cat.# G7572) solution is added directly to the cell culture in each well of the plate and the luminescence signal is measured with a TopCount plate-reader after 10 minutes of incubation at room temperature.
# (§5) Results in the table below are expressed by the following data: • the 50% cytostatic concentration (CC50), i.e. the concentration that results in 50% inhibition of cell growth, and • the 50% effective concentration (EC50), i.e. the concentration that […].
# HCV replicon = test: Anti-HCV replicon assay, EC50 (luciferase readout); assay type: cell-based; conditions: Hepatitis C virus, 72 h; Huh-7 HCV replicon cells, 3 days incubation, luciferase luminescence
# Method: as §1, §2, §3, §4, §5
Structure (SMILES),CC50 at 3 days [1],EC50 (HCV replicon)
"CCOc1nc(N)nc2ccc(-c3ccco3)cc12 [Example 44, 4-Ethoxy-6-furan-2-yl-quinazolin-2-ylamine]",> 20 µM,1 to 10 µM
"CCOc1nc(N)nc2ccc(-c3ccsc3)cc12 [Example 45, 4-Ethoxy-6-thiophen-3-yl-quinazolin-2-ylamine]",> 20 µM,1 to 10 µM
"CCOc1nc(N)nc2ccc(-c3ccc(F)c(F)c3)cc12 [Example 46, 6-(3,4-Difluoro-phenyl)-4-ethoxy-quinazolin-2-ylamine]",> 20 µM,1 to 10 µM
"CCOc1nc(N)nc2ccc(-c3cccc(C#N)c3)cc12 [Example 47, 3-(2-Amino-4-ethoxy-quinazolin-6-yl)-benzonitrile]",> 20 µM,1 to 10 µM
"CCOc1nc(N)nc2ccc(-c3cn[nH]c3)cc12 [Example 48, 4-Ethoxy-6-(2H-pyrazol-4-yl)-quinazolin-2-ylamine]",> 20 µM,0.3 to 1 µM
"CCOc1nc(N)nc2ccc(-c3ccc(N)cc3)cc12 [Example 49, 6-(4-Amino-phenyl)-4-ethoxy-quinazolin-2-ylamine]",> 20 µM,1 to 10 µM
"CCOc1nc(N)nc2ccc(-c3ccc(F)c(F)c3F)cc12 [Example 50, 4-Ethoxy-6-(2,3,4-trifluoro-phenyl)-quinazolin-2-ylamine]",10 to 20 µM,1 to 10 µM
"CCOc1nc(N)nc2ccc(-c3ccc(O)cc3)cc12 [Example 51, 4-(2-Amino-4-ethoxy-quinazolin-6-yl)-phenol]",10 to 20 µM,0.3 to 1 µM
"COCCOc1nc(N)nc2ccc(-c3cccc(F)c3F)cc12 [Example 52, 6-(2,3-Difluoro-phenyl)-4-(2-methoxy-ethoxy)-quinazolin-2-ylamine]",10 to 20 µM,1 to 10 µM
"COCCOc1nc(N)nc2ccc(-c3ccccc3C(F)(F)F)cc12 [Example 53, 4-(2-Methoxy-ethoxy)-6-(2-trifluoromethyl-phenyl)-quinazolin-2-ylamine]",< 10 µM,1 to 10 µM
"COCCOc1nc(N)nc2ccc(-c3ccc(Cl)s3)cc12 [Example 54, 6-(5-Chloro-thiophen-2-yl)-4-(2-methoxy-ethoxy)-quinazolin-2-ylamine]",> 20 µM,1 to 10 µM
"COCCOc1nc(N)nc2ccc(-c3ccc(C)cc3)cc12 [Example 55, 4-(2-Methoxy-ethoxy)-6-p-tolyl-quinazolin-2-ylamine]",> 20 µM,1 to 10 µM
"COCCOc1nc(N)nc2ccc(-c3cc4ccccc4s3)cc12 [Example 56, 6-Benzo[b]thiophen-2-yl-4-(2-methoxy-ethoxy)-quinazolin-2-ylamine]",> 20 µM,1 to 10 µM
"COCCOc1nc(N)nc2ccc(-c3cc4ccccc4o3)cc12 [Example 57, 6-Benzofuran-2-yl-4-(2-methoxy-ethoxy)-quinazolin-2-ylamine]",10 to 20 µM,1 to 10 µM
"COCCOc1nc(N)nc2ccc(-c3cccs3)cc12 [Example 58, 4-(2-Methoxy-ethoxy)-6-thiophen-2-yl-quinazolin-2-ylamine]",> 20 µM,1 to 10 µM
"CNC(=O)c1ccc(-c2ccc3nc(N)nc(OCCOC)c3c2)cc1 [Example 59, 4-(2-Amino-4-(2-methoxy-ethoxy)-quinazolin-6-yl)-N-methyl-benzamide]",> 20 µM,1 to 10 µM
"COCCOc1nc(N)nc2ccc(-c3ccco3)cc12 [Example 60, 4-(2-Methoxy-ethoxy)-6-furan-2-yl-quinazolin-2-ylamine]",> 20 µM,1 to 10 µM
"COCCOc1nc(N)nc2ccc(-c3ccsc3)cc12 [Example 61, 4-(2-Methoxy-ethoxy)-6-thiophen-3-yl-quinazolin-2-ylamine]",> 20 µM,1 to 10 µM
"COCCOc1nc(N)nc2ccc(-c3ccc(F)c(F)c3)cc12 [Example 62, 6-(3,4-Difluoro-phenyl)-4-(2-methoxy-ethoxy)-quinazolin-2-ylamine]",10 to 20 µM,1 to 10 µM

Structure (SMILES),CC50 at 3 days [1],EC50 (HCV replicon)
"COCCOc1nc(N)nc2ccc(-c3cccc(C#N)c3)cc12 [Example 63, 3-(2-Amino-4-(2-methoxy-ethoxy)-quinazolin-6-yl)-benzonitrile]",> 20 µM,1 to 10 µM
"COCCOc1nc(N)nc2ccc(-c3cn[nH]c3)cc12 [Example 64, 4-(2-Methoxy-ethoxy)-6-(2H-pyrazol-4-yl)-quinazolin-2-ylamine]",> 20 µM,1 to 10 µM
"COCCOc1nc(N)nc2ccc(-c3ccc(N)cc3)cc12 [Example 65, 6-(4-Amino-phenyl)-4-(2-methoxy-ethoxy)-quinazolin-2-ylamine]",> 20 µM,1 to 10 µM
"COCCOc1nc(N)nc2ccc(-c3ccc(F)c(F)c3F)cc12 [Example 66, 4-(2-Methoxy-ethoxy)-6-(2,3,4-trifluoro-phenyl)-quinazolin-2-ylamine]",> 20 µM,1 to 10 µM
"COCCOc1nc(N)nc2ccc(-c3ccc(F)cc3C)cc12 [Example 67, 6-(4-Fluoro-2-methyl-phenyl)-4-(2-methoxy-ethoxy)-quinazolin-2-ylamine]",10 to 20 µM,1 to 10 µM
"COCCOc1nc(N)nc2ccc(-c3ccc(O)cc3)cc12 [Example 68, 4-[2-Amino-4-(2-methoxy-ethoxy)-quinazolin-6-yl]-phenol]",10 to 20 µM,0.3 to 1 µM
"COCCOc1nc(N)nc2ccc(-c3ccc(Cl)c(C(F)(F)F)c3)cc12 [Example 69, 6-(4-Chloro-3-trifluoromethyl-phenyl)-4-(2-methoxy-ethoxy)-quinazolin-2-ylamine]",> 20 µM,1 to 10 µM
"Nc1nc(OCc2ccccc2)c2cc(-c3ccn[nH]3)ccc2n1 [Example 70, 4-Benzyloxy-6-(2H-pyrazol-3-yl)-quinazolin-2-ylamine]",10 to 20 µM,1 to 10 µM
"CNC(=O)c1ccc(-c2ccc3nc(N)nc(OCc4ccccc4)c3c2)cc1 [Example 71, 4-(2-Amino-4-benzyloxy-quinazolin-6-yl)-N-methyl-benzamide]",> 20 µM,0.3 to 1 µM
"Nc1nc(OCc2ccccc2)c2cc(-c3cn[nH]c3)ccc2n1 [Example 72, 4-benzyloxy-6-(1H-pyrazol-4-yl)-quinazolin-2-ylamine]",> 20 µM,1 to 10 µM
"CN(C)CCOCCOc1nc(N)nc2ccc(-c3ccc(OC(F)(F)F)cc3)cc12 [Example 73, 4-[2-(2-Dimethylamino-ethoxy)-ethoxy]-6-(4-trifluoromethoxy-phenyl)-quinazolin-2-ylamine]",10 to 20 µM,1 to 10 µM
"CC(C)Oc1nc(N)nc2ccc(-c3ccc(F)cc3F)cc12 [Example 74, 6-(2,4-Difluoro-phenyl)-4-isopropoxy-quinazolin-2-ylamine]",10 to 20 µM,1 to 10 µM
CC(C)Oc1nc(N)nc2ccc(-c3cccc(F)c3F)cc12 [Example 75],> 20 µM,0.3 to 1 µM
"CC(C)Oc1nc(N)nc2ccc(-c3cccc(C(F)(F)F)c3)cc12 [Example 76, 4-Isopropoxy-6-(3-trifluoromethyl-phenyl)-quinazolin-2-ylamine]",> 20 µM,1 to 10 µM
"CC(C)Oc1nc(N)nc2ccc(-c3ccccc3C(F)(F)F)cc12 [Example 77, 4-Isopropoxy-6-(2-trifluoromethyl-phenyl)-quinazolin-2-ylamine]",10 to 20 µM,1 to 10 µM
"CC(C)Oc1nc(N)nc2ccc(-c3ccc(Cl)cc3)cc12 [Example 78, 4-Isopropoxy-6-(4-chloro-phenyl)-quinazolin-2-ylamine]",> 20 µM,1 to 10 µM
"Cc1ccc(-c2ccc3nc(N)nc(OC(C)C)c3c2)cc1 [Example 79, 4-Isopropoxy-6-p-tolyl-quinazolin-2-ylamine]",> 20 µM,1 to 10 µM
"CC(C)Oc1nc(N)nc2ccc(-c3ccc(Cl)cc3Cl)cc12 [Example 80, 6-(2,4-Dichloro-phenyl)-4-isopropoxy-quinazolin-2-ylamine]",> 20 µM,1 to 10 µM
